Test results taken from patent US7763426B2, “Probes and methods for detection of Escheridia coli and antibiotic resistance” (priority 2004, dated 2010).
{Fluorescein} = fluorescein label (binding site for anti-fluorescein Fab-HRP); {Biotin} = biotin (capture probe anchor)

Test system: bacterial 16S rRNA
Assay: Clinical validity study: UTI Chip on blinded clinical urine specimens
Format: binding
Method: Amperometric detection of bacterial 16S rRNA. An overview of the electrochemical sensor detection strategy is presented in panel C of FIG. 1. One ml of bacteria in Luria broth, inoculated clean urine, or clinical urine samples was centrifuged at 10,000×g for 5 min. The supernatant was discarded and the bacteria were lysed by resuspension of the pellet in 10 μl of 1 M NaOH and incubation at room temperature for 5 min. In some experiments, addition of 1M NaOH was preceded by resuspension of the bacterial pellet in 10 μl of 0.1% Triton X-100, 2 mM EDTA, and 1 mg/ml lysozyme (Sigma) in 20 mM Tris-HCl, pH 8.0, and incubation at room temperature for 5 min. 50 μl of the detector probe (0.25 μM) in 2.5% bovine serum albumin (Sigma, St. Louis, Mo.) 1 M phosphate buffer, pH 7.4, were added to the bacterial lysate and incubated for 10 min at 65° C. to allow target-probe hybridization. 4 μl of the bacterial lysate/detector probe mixture was deposited on each of the working electrodes in the sensor array and incubated for 15 min at 65° C. in a humidified chamber. After washing and drying, 4 μl of 0.5 U/ml anti-fluorescein horseradish peroxidase (HRP) Fab fragments (Roche, diluted in 0.5% casein in 10 mM phosphate buffered saline, pH 7.4) were deposited on each of the working electrodes for 15 min. After washing and drying, a prefabricated plastic well manifold (GeneFluidics, Monterey Park, Calif.) was bonded to the sensor array. The sensor array was put into the chip reader (FIG. 18) and 50 μl of 3,3′,5,5′-tetramethylbenzidine (TMB), H2O2 solution (K-Blue Low Activity TMB Substrate, Neogen, Lexington, Ky.) was placed on each of the sensors in the array so as to cover all three electrodes of each sensor. Electrochemical measurements are immediately and simultaneously taken for all 16 sensors. For each array, negative control (NC) sensors were tested including the UNI capture probe, detector probe, and 2.5% bovine serum albumin (Sigma, St, Louis, Mo.) in 1 M phosphate buffer, pH 7.4, instead of bacterial lysate. The entire assay protocol was completed within 45 min from the time when bacterial lysis was commenced. Amperometric current vs. time was measured using a multichannel potentiostat (GeneFluidics). The voltage was fixed at −200 mV (vs. reference), and the electroreduction current was measured at 60 s after the HRP redox reaction reached steady state.
Clinical validity study design. Clinical urine specimens were received from routine urine cultures collected from inpatients and outpatients and submitted to the UCLA Clinical Microbiology Laboratory. Routine plating on tripticase soy agar with 5% sheep blood was performed on each specimen for phenotypic identification and colony counting while an aliquot of each specimen was held at 4° C. overnight. On the day after plating, specimens were selected for inclusion in the study on the basis of a rapid indole test for the purpose of including uropathogens other than Escherichia coli in approximately one-half of the specimens. The other half of the specimens were divided between E. coli-containing specimens and specimens determined to have ““no significant growth” or no growth” (see definitions below). Because most UTIs involve a single uropathogen, specimens determined by the clinical microbiology laboratory to have more than one organism present were excluded. Blinded specimens selected for inclusion in the study were stripped of patient identifiers and any microbiological data before delivery to the research laboratory for testing with the electrochemical sensor array.
Experiments were performed on all specimens using the 16-sensor array ‘UTI Chip’, in which the UNI, EB, EC, PM, KE, PA, and EF capture probes (defined in Tables 1 and 2) were tested in duplicate. The two remaining sensors served as negative controls (including capture and detector probes without bacterial lysate). […]

[1] = No Significant Growth specimens
[2] = specimens with Citrobacter freundii
[3] = specimens with Citrobacter koseri
[4] = specimens with Enterobacter aerogenes
[5] = specimens with Enterobacter cloacae
[6] = specimens with Enterobacteriaceae
[7] = specimens with Enterococcus species
[8] = specimens with Escherichia coli
[9] = specimens with Gram-negative bacteria
[10] = specimens with Gram-positive bacteria
[11] = specimens with Klebsiella pneumoniae
[12] = specimens with Proteus mirabilis
[13] = specimens with Pseudomonas aeruginosa
[14] = specimens with Serratia marcescens
[15] = specimens with Staph. saprophyticus

## UNI: Universal Bacterial probe pair: capture 797 (27 mer) SEQ ID NO: 13, detector 766 (31 mer) SEQ ID NO: 14 (DNA 1 CATCGTTTACGGCGTGGACTACCAGGG; DNA 2 TATCTAATCCTGTTTGCTCCCCACGCTTTCG; DNA 1: DNA, 5' {Biotin}, backbone and methylation of C not given here; DNA 2: DNA, 5' {Fluorescein}, backbone and methylation of C not given here)
  sensitivity for detection of Gram-negative bacteria in clinical urine specimens: 100%
10/12 no growth specimens
  specificity: 83%
54/58, 0.30 log unit threshold
  overall sensitivity for detection of uropathogens in clinical urine specimens: 93%
All specimens with bacteria
  Mean (range): 1.28 (0.33-1.84) log10 units over background
  Positive/Total = Percent: 54/58 = 93%
No Growth specimens
  Mean (range): 0.38 (0.34-0.42) log10 units over background
  Positive/Total = Percent: 2/12 = 17%
[1]
  Mean (range): 0.42 (0.31-0.57) log10 units over background
  Positive/Total = Percent: 5/3 = 63%
[2]
  Mean (range): 1.49 (1.43-1.55) log10 units over background
  Positive/Total = Percent: 2/2 = 100%
[3]
  Mean (range): 1.23 log10 units over background
  Positive/Total = Percent: 1/1 = 100%
[4]
  Mean (range): 1.35 (0.93-1.65) log10 units over background
  Positive/Total = Percent: 5/5 = 100%
[5]
  Mean (range): 1.43 log10 units over background
  Positive/Total = Percent: 1/1 = 100%
[6]
  Mean (range): 1.32 (0.40-1.84) log10 units over background
  Positive/Total = Percent: 47/47 = 100%
[7]
  Mean (range): 0.92 (0.33-1.78) log10 units over background
  Positive/Total = Percent: 5/8 = 63%
[8]
  Mean (range): 1.30 (0.54-1.77) log10 units over background
  Positive/Total = Percent: 26/26 = 100%
[9]
  Mean (range): 1.32 (0.40-1.84) log10 units over background
  Positive/Total = Percent: 48/48 = 100%
[10]
  Mean (range): 0.95 (0.33-1.78) log10 units over background
  Positive/Total = Percent: 6/10 = 60%
[11]
  Mean (range): 1.22 (0.40-1.84) log10 units over background
  Positive/Total = Percent: 8/8 = 100%
[12]
  Mean (range): 1.41 (1.16-1.66) log10 units over background
  Positive/Total = Percent: 3/3 = 100%
[13]
  Mean (range): 1.33 log10 units over background
  Positive/Total = Percent: 1/1 = 100%
[14]
  Mean (range): 1.67 log10 units over background
  Positive/Total = Percent: 1/1 = 100%
[15]
  Mean (range): 1.10 log10 units over background
  Positive/Total = Percent: 1/2 = 50%
